Experimental data taken from patent US10912780B2, “Heterocyclic compounds useful as anti-bacterial agents and method for production thereof” (Bugworks Research, Inc., priority 2017, dated 2021).
In brackets after ≈: the same amount, converted by molar mass.

Columns and labels:
E. coli topoisomerase IV = E. coli topoisomerase IV (Escherichia coli, UniProt P0AFI2+P20083); test: biochemical; conditions: decatenation assay; read-out: E. coli Topo IV IC50
[1] = tested on: Acinetobacter baumannii ATCC 19606; test: Minimum Inhibitory Concentration (MIC) in LB media; type: cell-based; conditions: Acinetobacter baumannii, ATCC19606;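 further: twofold compound dilutions from DMSO stocks in LB broth microplates, overnight incubation at 37 °C, growth read by absorbance at 600 nm, with DMSO and sterility controls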
E. coli DNA gyrase = E. coli DNA gyrase (Escherichia coli, UniProt P0AES4+P0AES6); test: biochemical; conditions: supercoiling assay
[2] = tested on: Enterococcus faecalis ATCC 29212; test: Minimum Inhibitory Concentration (MIC) in LB media; type: cell-based; conditions: Enterococcus faecalis, ATCC29212, read-out: Minimum Inhibitory Concentration E. faecalis ATCC 29212
Text: (§1) The compounds of Formula (I) are of interest due to their potent antibacterial effects. The ability of the invention compounds disclosed herein to achieve an antibacterial effect may be evaluated with regard to their ability to inhibit the growth of bacterial species like Escherichia coli ATCC 25922, Staphylococcus aureus ATCC 29213, Klebsiella pneumoniae ATCC 13883, Acinetobacter baumannii ATCC 19606, Pseudomonas aeruginosa ATCC 27853, Enterococcus faecalis ATCC 29212 and Enterococcus faecalis ATCC 29212 using an assay based on the following Minimum Inhibitory Concentration (MIC) protocol:
(§2) The medium sterility is checked by incubating at 37° C. for a period of 48 h.
(§3) Bacterial cultures that are stored as glycerol stocks at −80° C. are sub cultured on LB agar plates to obtain isolated colonies. A single colony of each strain is cultured in LB broth. The cultures are incubated at 37 C, 200 rpm till they reach an optical density (OD at 600 nm) of 0.8 to 1. […] Test compounds are dissolved in dimethyl sulfoxide (DMSO) to a stock concentration of 4 mg/ml. A twofold dilution series of this DMSO stock is prepared in a 96 well V bottom microtitre plate from rows A to H. A 3 μL volume of these dilutions are transferred to a 96-well flat bottom microtitre assay plate. Controls to monitor the effects of DMSO and media sterility are included. Each well is inoculated with 150 μL of the above diluted culture. The plates are incubated at 37° C. overnight in a humidified incubator. The following morning, the plates are read using a Spectrophotometer at 600 nm wavelength. […] The antibacterial activity (MIC) determined against representative Gram positive (S. aureus, E. faecalis) and Gram negative (E.coli, -P. aeruginosa and A. baumannii) pathogen were reported Table 1.

[3] = tested on: Staphylococcus aureus ATCC 29213; test: Minimum Inhibitory Concentration (MIC) in LB media; type: cell-based; conditions: Staphylococcus aureus, ATCC29213, read-out: Minimum Inhibitory Concentration S. aureus ATCC 29213
Text: as §1, §2, §3

[4] = tested on: Pseudomonas aeruginosa ATCC 27853; test: Minimum Inhibitory Concentration (MIC) in LB media; type: cell-based; conditions: Pseudomonas aeruginosa, ATCC27853, read-out: Minimum Inhibitory Concentration P. aeruginosa ATCC 27853
Text: as §1, §2, §3

[5] = tested on: Klebsiella pneumoniae ATCC 13883; test: Minimum Inhibitory Concentration (MIC) in LB media; type: cell-based; conditions: Klebsiella pneumoniae, ATCC13883, read-out: Minimum Inhibitory Concentration K. pneumoniae ATCC 13883
Text: as §1, §2, §3

[6] = tested on: Escherichia coli ATCC 25922; test: Minimum Inhibitory Concentration (MIC) in LB media; type: cell-based; conditions: Escherichia coli, ATCC25922, read-out: Minimum Inhibitory Concentration E. coli ATCC 25922
Text: as §1, §2, §3

Sequence of E. coli topoisomerase IV (P20083 whole entry): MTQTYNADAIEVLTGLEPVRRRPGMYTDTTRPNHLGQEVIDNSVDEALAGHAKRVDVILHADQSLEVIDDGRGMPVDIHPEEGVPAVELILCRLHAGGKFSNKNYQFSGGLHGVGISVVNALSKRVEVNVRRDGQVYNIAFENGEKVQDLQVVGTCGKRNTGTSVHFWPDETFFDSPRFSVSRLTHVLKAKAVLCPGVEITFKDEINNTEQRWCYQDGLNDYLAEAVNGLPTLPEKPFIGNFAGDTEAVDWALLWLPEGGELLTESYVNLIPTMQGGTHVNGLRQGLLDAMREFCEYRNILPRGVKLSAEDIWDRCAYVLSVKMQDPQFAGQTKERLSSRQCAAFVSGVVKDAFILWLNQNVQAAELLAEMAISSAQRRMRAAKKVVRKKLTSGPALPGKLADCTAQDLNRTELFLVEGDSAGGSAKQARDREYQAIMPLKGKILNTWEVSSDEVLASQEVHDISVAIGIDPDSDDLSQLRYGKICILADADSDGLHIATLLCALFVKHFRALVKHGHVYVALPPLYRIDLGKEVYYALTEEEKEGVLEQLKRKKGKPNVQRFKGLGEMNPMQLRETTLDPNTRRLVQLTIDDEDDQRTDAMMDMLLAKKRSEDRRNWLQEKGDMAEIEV
Sequence of E. coli topoisomerase IV (P0AFI2 whole entry): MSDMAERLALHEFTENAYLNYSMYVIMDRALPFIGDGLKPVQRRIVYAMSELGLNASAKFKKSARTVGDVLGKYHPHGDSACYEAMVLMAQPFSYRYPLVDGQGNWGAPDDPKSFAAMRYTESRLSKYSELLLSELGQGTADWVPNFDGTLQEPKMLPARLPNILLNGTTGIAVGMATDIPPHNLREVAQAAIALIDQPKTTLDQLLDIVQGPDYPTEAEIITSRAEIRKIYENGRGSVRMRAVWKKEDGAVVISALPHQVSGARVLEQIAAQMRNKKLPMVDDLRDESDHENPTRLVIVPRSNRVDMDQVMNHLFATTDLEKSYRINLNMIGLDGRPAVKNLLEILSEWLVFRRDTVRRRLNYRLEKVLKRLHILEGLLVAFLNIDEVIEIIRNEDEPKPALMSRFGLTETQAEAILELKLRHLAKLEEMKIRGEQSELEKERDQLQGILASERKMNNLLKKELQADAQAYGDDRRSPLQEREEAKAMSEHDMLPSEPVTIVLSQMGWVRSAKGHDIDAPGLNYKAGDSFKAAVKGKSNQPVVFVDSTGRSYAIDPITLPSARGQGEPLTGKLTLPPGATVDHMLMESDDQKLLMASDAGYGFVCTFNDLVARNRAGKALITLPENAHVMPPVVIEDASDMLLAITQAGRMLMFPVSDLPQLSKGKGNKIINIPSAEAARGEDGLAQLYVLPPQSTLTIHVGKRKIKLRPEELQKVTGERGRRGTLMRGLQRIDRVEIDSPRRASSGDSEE

Compound	MIC [1]	MIC [2]	MIC [3]	MIC [4]	MIC [5]	MIC [6]	IC50 (E. coli topoisomerase IV)	IC50 (E. coli DNA gyrase)
Cn1c(=O)cc(CO)c2ccc(F)c(CCNC[C@H]3CN(c4ccc5c(n4)NC(=O)CO5)C(=O)O3)c21 [Example 12, (S)-6-(5-(((2-(7-fluoro-4-(hydroxymethyl)-1-methyl-2-oxo-1,2-dihydroquinolin-8-yl)ethyl)amino)methyl)-2-oxooxazolidin-3-yl)-2H-pyrido[3,2-b][1,4]oxazin-3(4H)-one]	1 µg/mL (≈ 2.01 µM)	0.5 µg/mL (≈ 1.01 µM)	0.25 µg/mL (≈ 0.503 µM)	1 µg/mL (≈ 2.01 µM)	0.5 µg/mL (≈ 1.01 µM)	0.25 µg/mL (≈ 0.503 µM)	176 nM	< 100 nM
Cn1c(=O)cnc2ccc(F)c(CCNC[C@H]3CN(c4ncc5c(n4)NC(=O)CO5)C(=O)O3)c21 [Example 17, (S)-2-(5-(((2-(6-fluoro-4-methyl-3-oxo-3,4-dihydroquinoxalin-5-yl)ethyl)amino)methyl)-2-oxooxazolidin-3-yl)-6H-pyrimido[5,4-b][1,4]oxazin-7(8H)-one]	1 µg/mL (≈ 2.13 µM)	0.25 µg/mL (≈ 0.533 µM)	0.125 µg/mL (≈ 0.266 µM)	2 µg/mL (≈ 4.26 µM)	0.25 µg/mL (≈ 0.533 µM)	0.125 µg/mL (≈ 0.266 µM)		
Cn1c(=O)ccc2ncc(F)c(CCNC[C@H]3CN(c4cnc5c(n4)NC(=O)CO5)C(=O)O3)c21 [Example 29, (S)-6-(5-(((2-(3-fluoro-5-methyl-6-oxo-5,6-dihydro-1,5-naphthyridin-4-yl)ethyl)amino)methyl)-2-oxooxazolidin-3-yl)-2H-pyrazino[2,3-b][1,4]oxazin-3(4H)-one]	0.5 µg/mL (≈ 1.07 µM)	0.125 µg/mL (≈ 0.266 µM)	0.03 µg/mL (≈ 0.0639 µM)	0.5 µg/mL (≈ 1.07 µM)	0.125 µg/mL (≈ 0.266 µM)	0.125 µg/mL (≈ 0.266 µM)		
Cn1c(=O)cnc2ccc(F)c(CCNC[C@H]3CN(c4cnc5c(n4)NC(=O)CO5)C(=O)O3)c21 [Example 30, (S)-6-(5-(((2-(6-fluoro-4-methyl-3-oxo-3,4-dihydroquinoxalin-5-yl)ethyl)amino)methyl)-2-oxooxazolidin-3-yl)-2H-pyrazino[2,3-b][1,4]oxazin-3(4H)-one]	0.06 µg/mL (≈ 0.128 µM)	0.125 µg/mL (≈ 0.266 µM)	0.03 µg/mL (≈ 0.0639 µM)	0.25 µg/mL (≈ 0.533 µM)	0.06 µg/mL (≈ 0.128 µM)	0.06 µg/mL (≈ 0.128 µM)		

Continued, in another order:

MIC [1]	MIC [2]	MIC [3]	MIC [4]	MIC [5]	MIC [6]	Compound	IC50 (E. coli topoisomerase IV)	IC50 (E. coli DNA gyrase)
0.125 µg/mL (≈ 0.244 µM)	0.25 µg/mL (≈ 0.488 µM)	0.015 µg/mL (≈ 0.0293 µM)	1 µg/mL (≈ 1.95 µM)	0.125 µg/mL (≈ 0.244 µM)	0.06 µg/mL (≈ 0.117 µM)	COCCn1c(=O)ccc2ccc(F)c(CCNC[C@H]3CN(c4cnc5c(n4)NC(=O)CO5)C(=O)O3)c21 [Example 21, (S)-6-(5-(((2-(7-fluoro-1-(2-methoxyethyl)-2-oxo-1,2-dihydroquinolin-8-yl)ethyl)amino)methyl)-2-oxooxazolidin-3-yl)-2H-pyrazino[2,3-b][1,4]oxazin-3(4H)-one]		
0.03 µg/mL (≈ 0.0622 µM)	0.03 µg/mL (≈ 0.0622 µM)	≤ 0.015 µg/mL	0.5 µg/mL (≈ 1.04 µM)	0.03 µg/mL (≈ 0.0622 µM)	0.03 µg/mL (≈ 0.0622 µM)	CCn1c(=O)ccc2ccc(F)c(CCNC[C@H]3CN(c4cnc5c(n4)NC(=O)CO5)C(=O)O3)c21 [Example 26, (S)-6-(5-(((2-(1-ethyl-7-fluoro-2-oxo-1,2-dihydroquinolin-8-yl)ethyl)amino)methyl)-2-oxooxazolidin-3-yl)-2H-pyrazino[2,3-b][1,4]oxazin-3(4H)-one]		
0.06 µg/mL (≈ 0.121 µM)	0.06 µg/mL (≈ 0.121 µM)	0.015 µg/mL (≈ 0.0302 µM)	0.5 µg/mL (≈ 1.01 µM)	0.125 µg/mL (≈ 0.252 µM)	0.03 µg/mL (≈ 0.0604 µM)	CCn1c(=O)ccc2ccc(F)c(CCNCC[C@H]3CN(c4cnc5c(n4)NC(=O)CO5)C(=O)O3)c21 [Example 27, (S)-6-(5-(2-((2-(1-ethyl-7-fluoro-2-oxo-1,2-dihydroquinolin-8-yl)ethyl)amino)ethyl)-2-oxooxazolidin-3-yl)-2H-pyrazino[2,3-b][1,4]oxazin-3(4H)-one]		
0.125 µg/mL (≈ 0.259 µM)	0.06 µg/mL (≈ 0.124 µM)	≤ 0.015 µg/mL	0.5 µg/mL (≈ 1.04 µM)	0.06 µg/mL (≈ 0.124 µM)	0.06 µg/mL (≈ 0.124 µM)	Cc1cc(=O)n(C)c2c(CCNC[C@H]3CN(c4cnc5c(n4)NC(=O)CO5)C(=O)O3)c(F)ccc12 [Example 28, (S)-6-(5-(((2-(7-fluoro-1,4-dimethyl-2-oxo-1,2-dihydroquinolin-8-yl)ethyl)amino)methyl)-2-oxooxazolidin-3-yl)-2H-pyrazino[2,3-b][1,4]oxazin-3(4H)-one]		
